Experimental data published in patent US5371225A, “Tetracyclic compounds” (Kyowa Hakko Kogyo Co., Ltd., priority 1992, dated 1994).

How the values were obtained:
[1] = tested on: spleen cells (antibody production, direct PFC count); assay: Plaque Forming Cell Assay (inhibition of antibody production); format: cell-based, Balb/c strain mice; settings: Mus musculus, Erythrocyte, 120 h, spleen cells of mice sensitized with sheep erythrocytes, cultured 5 days, read-out: Inhibition rate; for inhibition at 10 µM: 10^-5 M; for inhibition at 0.1 µM: 10^-7 M
[2] = tested on: spleen cells (antibody production, direct PFC count); assay: as above; format: cell-based, Balb/c strain mice; settings: Mus musculus, Erythrocyte, 120 h; 10^-6 M; spleen cells of mice sensitized with sheep erythrocytes, cultured 5 days; read-out: Inhibition rate
Experimental: The plaque forming cell assay was carried out by the following manner with reference to the method of Jerne et al. [Science, 140, 405 (1963) ]and the method of Yamamoto et al. [Drugs Experimental Clinical Research, III(1), 5 (1982)].
Male Balb/c strain mice (7-week-old) (Charles River Co.) were sensitized with 1×10^8 sheep erythrocytes (product of Biotest Research Institute) administered via the caudal vein, and the spleens were extirpated after 6 or 7 days after the sensitization. The extirpated spleens were immersed in Hanks' solution (Nissui Seiyaku) to make a cell suspension, which was then filtered, followed by centrifugal separation at 1200 rpm for 5 minutes. After centrifugal separation, the supernatant was discarded and the precipitate was treated with Tris·NH4 Cl solution to remove the erythrocytes, and then washed three times with Hanks' solution. After discarding the supernatant, the cells were suspended in an RPMI-1640 medium (Nissui Seiyaku) containing 10% bovine fetal serum (Gibco Co. ), 50 μg/ml of streptomycin (Meiji Seika), […] of penicillin (Meiji Seika) and 2mercaptoethanol (5×10^-5 M). In each well of a micro culture plate (NUNK Co., Ltd., 24 wells) were put 2 ml of the mixture of the cell suspension containing 1×10^7 of spleen cells, 5×10^6 sheep erythrocytes and a test compound solution (10^-6 M) obtained by diluting the test compound dissolved in dimethylsulfoxide (10^-2 M) with the above mentioned RPMI-1640, and the cells were cultured at 37° C. for 5 days.
After the completion of the culturing, the cells were subjected to centrifugal separation at 2000 rpm for 5 minutes, and the resulting supernatant was removed. The precipitate was suspended in 1 ml of Hanks' solution, again subjected to centrifugal separation, suspended in 1 ml of Hanks' solution, and then, 50 μl of the suspension and 50 μl of sheep erythrocytes were added to 400 μl of 0.25% agarose/Hanks' solution heated to 50° C. in advance, and the mixture was scattered on a glass slide, placed on a plaque assay plate, and together with guinea pig complement (Cedarlene Institute) diluted 40-fold with a phosphate buffer solution, incubated at 37° C. for 1 to 2 hours. The number of the appearing direct plaque cells (direct PFC count) in suspension was counted.
The inhibition rate of the antibody production of the test compound was determined by the following equation. [formula]
The compound used for comparison was 5,6-dihydro-9-fluoro-3-phenylbenz[c]acridine-7-carboxylic acid [Japanese Published Unexamined Patent Application No. 233661/90, hereinafter referred to as Compound (A)]represented by formula (A). [drawing 12]
PFC count in control means PFC count in the absence of the test compound (dimethylsulfoxide alone).

SMILES: O=C(O)c1c2c(nc3ccc(F)cc13)-c1ccc(-c3ccccc3)cc1CC2 [A, 5,6-dihydro-9-fluoro-3-phenylbenz[c]acridine-7-carboxylic acid, reference compound]
- inhibition at 10 µM [1]: 78.6%
- inhibition at 1 µM [2]: 45.9%

SMILES: O=C(O)c1c2c(nc3ccc(F)cc13)-c1ccc(-c3ccccc3F)cc1CC2 [Compound 2, 5,6-Dihydro-9-fluoro-3-(2-fluorophenyl) ben z [c]acridine-7carboxylicacid]
- inhibition at 10 µM [1]: 99.4%
- inhibition at 0.1 µM [1]: 57.1%
- inhibition at 1 µM [2]: 94.4%

SMILES: O=C(O)c1c2c(nc3ccc(F)cc13)-c1ccc(-c3ccccc3F)cc1CCC2 [Compound 3, 6,7-Dihydro-10-fluoro-3-(2-fluorophenyl) -5Hbenzo [6, 7]cyclohepta [1,2-b]quinoline-8-carboxylic acid]
- inhibition at 10 µM [1]: 83.5%
- inhibition at 0.1 µM [1]: 55.4%
- inhibition at 1 µM [2]: 80.3%

SMILES: CC1Cc2c(nc3ccc(F)cc3c2C(=O)O)-c2ccc(-c3ccccc3F)cc21 (centres unmarked) [Compound 5, 5,6-Dihydro-9-fluoro-3-(2-fluorophenyl)-5methylbenz[c]acridine-7-carboxylicacid]
- inhibition at 10 µM [1]: 98.7%
- inhibition at 1 µM [2]: 64.6%

SMILES: CC1(C)Cc2c(nc3ccc(F)cc3c2C(=O)O)-c2ccc(-c3ccccc3F)cc21 [Compound 7]
- inhibition at 10 µM [1]: 98.1%
- inhibition at 1 µM [2]: 75.3%

SMILES: CC1Cc2cc(-c3ccccc3F)ccc2-c2nc3ccc(F)cc3c(C(=O)O)c21 (centres unmarked) [Compound 8]
- inhibition at 10 µM [1]: 98.7%
- inhibition at 1 µM [2]: 80.2%
